Assay results from ChEMBL document CHEMBL1141247, “Hydroxyalkenylresorcinols from Stylogyne turbacensis” (J Nat Prod, 2007).

Assays:
[1] = system: NCI-H460; assay: Cytotoxicity against human NCI-H460; assay type: functional, cell-based
[2] = system: Leishmania donovani; assay: Antileishmanial activity against Leishmania donovani; assay type: functional, organism-based
[3] = system: Trypanosoma cruzi; assay: Antitrypanosomal activity against Trypanosoma cruzi; assay type: functional, organism-based
[4] = system: Vero; assay: Cytotoxicity against […] Vero cells by MTT assay; assay type: cell-based, Homo sapiens; conditions: Chlorocebus sabaeus
[5] = system: MCF7; assay: Cytotoxicity against human MCF7 cells; assay type: functional, cell-based
[6] = system: NCI-H460; assay: Cytotoxicity against human NCI-H460 at 20 ug/ml; assay type: functional

Row | Structure (SMILES) | IC50 [2] [nM] | IC50 [3] [µM] | IC50 [1] [µM] | IC50 [4] [µM] | IC50 [5] [µM] | inhibition at 20 µg/mL [6] [%]
1 | CCCCCC[C@H](O)C/C=C\CCCCCCCc1cc(O)cc(O)c1 | 7000 | 138 | 16 | 76 | 14 | –
2 | CCCCC/C=C\C/C=C\CCCCCCCc1cc(OC(C)=O)cc(OC(C)=O)c1 | – | 117 | – | 124 | – | –
3 | CC/C=C\C/C=C\C/C=C\CCCCCCCc1cc(OC(C)=O)cc(OC(C)=O)c1 | – | 117 | – | 138 | – | –
4 | CC/C=C\C[C@H](CC/C=C\CCCCCCCc1cc(OC(C)=O)cc(OC(C)=O)c1)OC(C)=O | – | 107 | – | 82 | – | –
5 | C[C@@H]1[C@H](O)[C@@H](C)/C=C/C=C/C=C/C=C/C=C/C=C/C=C/[C@H](O[C@@H]2O[C@H](C)[C@@H](O)[C@H](N)[C@@H]2O)C[C@@H]2O[C@](O)(C[C@@H](O)C[C@@H](O)[C@H](O)CC[C@@H](O)C[C@@H](O)CC(=O)O[C@H]1C)C[C@H](O)[C@H]2C(=O)O [AMPHOTERICIN B] | 90 | – | – | – | – | –

Further lines, with some results ahead:

Row | IC50 [2] [nM] | IC50 [3] [µM] | Structure (SMILES) | IC50 [1] [µM] | IC50 [4] [µM] | IC50 [5] [µM] | inhibition at 20 µg/mL [6] [%]
6 | 600 | 30 | CCCCC/C=C\C/C=C\CCCCCCCc1cc(O)cc(O)c1 | 8.7 | 148 | 8.7 | –
7 | 3000 | 22 | CC/C=C\C[C@@H](O)CC/C=C\CCCCCCCc1cc(O)cc(O)c1 | > 10 | 30 | 22 | < 50
8 | – | 102 | CCCCCC[C@@H](C/C=C\CCCCCCCc1cc(OC(C)=O)cc(OC(C)=O)c1)OC(C)=O | – | 75 | – | –
9 | 600 | 25 | CC/C=C\C/C=C\C/C=C\CCCCCCCc1cc(O)cc(O)c1 | 8.7 | 104 | 8.7 | –
10 | – | 6 | CC1CS(=O)(=O)CCN1/N=C/c1ccc([N+](=O)[O-])o1 (stereo unspecified) [NIFURTIMOX] | – | – | – | –
